The target in one experiment is VEGFR2 tyrosine kinase (Homo sapiens (Human), UniProt P35968). Nature of the experiment: Assay of small molecular compounds for inhibiting the activity of VEGFR-2 kinase (LANCE TR-FRET).
A further experiment has as its target RET tyrosine kinase (Homo sapiens (Human), UniProt P07949). Nature of the experiment: Assay of small molecular compounds for inhibiting the activity of RET kinase (LANCE TR-FRET). Background: Time-resolved FRET reads energy transfer from a long-lived donor to a nearby acceptor.

Read-outs that look alike come from different tables or passages of the source. Some results are limits rather than exact numbers.

Sequence of VEGFR2 tyrosine kinase (P35968 20-1356): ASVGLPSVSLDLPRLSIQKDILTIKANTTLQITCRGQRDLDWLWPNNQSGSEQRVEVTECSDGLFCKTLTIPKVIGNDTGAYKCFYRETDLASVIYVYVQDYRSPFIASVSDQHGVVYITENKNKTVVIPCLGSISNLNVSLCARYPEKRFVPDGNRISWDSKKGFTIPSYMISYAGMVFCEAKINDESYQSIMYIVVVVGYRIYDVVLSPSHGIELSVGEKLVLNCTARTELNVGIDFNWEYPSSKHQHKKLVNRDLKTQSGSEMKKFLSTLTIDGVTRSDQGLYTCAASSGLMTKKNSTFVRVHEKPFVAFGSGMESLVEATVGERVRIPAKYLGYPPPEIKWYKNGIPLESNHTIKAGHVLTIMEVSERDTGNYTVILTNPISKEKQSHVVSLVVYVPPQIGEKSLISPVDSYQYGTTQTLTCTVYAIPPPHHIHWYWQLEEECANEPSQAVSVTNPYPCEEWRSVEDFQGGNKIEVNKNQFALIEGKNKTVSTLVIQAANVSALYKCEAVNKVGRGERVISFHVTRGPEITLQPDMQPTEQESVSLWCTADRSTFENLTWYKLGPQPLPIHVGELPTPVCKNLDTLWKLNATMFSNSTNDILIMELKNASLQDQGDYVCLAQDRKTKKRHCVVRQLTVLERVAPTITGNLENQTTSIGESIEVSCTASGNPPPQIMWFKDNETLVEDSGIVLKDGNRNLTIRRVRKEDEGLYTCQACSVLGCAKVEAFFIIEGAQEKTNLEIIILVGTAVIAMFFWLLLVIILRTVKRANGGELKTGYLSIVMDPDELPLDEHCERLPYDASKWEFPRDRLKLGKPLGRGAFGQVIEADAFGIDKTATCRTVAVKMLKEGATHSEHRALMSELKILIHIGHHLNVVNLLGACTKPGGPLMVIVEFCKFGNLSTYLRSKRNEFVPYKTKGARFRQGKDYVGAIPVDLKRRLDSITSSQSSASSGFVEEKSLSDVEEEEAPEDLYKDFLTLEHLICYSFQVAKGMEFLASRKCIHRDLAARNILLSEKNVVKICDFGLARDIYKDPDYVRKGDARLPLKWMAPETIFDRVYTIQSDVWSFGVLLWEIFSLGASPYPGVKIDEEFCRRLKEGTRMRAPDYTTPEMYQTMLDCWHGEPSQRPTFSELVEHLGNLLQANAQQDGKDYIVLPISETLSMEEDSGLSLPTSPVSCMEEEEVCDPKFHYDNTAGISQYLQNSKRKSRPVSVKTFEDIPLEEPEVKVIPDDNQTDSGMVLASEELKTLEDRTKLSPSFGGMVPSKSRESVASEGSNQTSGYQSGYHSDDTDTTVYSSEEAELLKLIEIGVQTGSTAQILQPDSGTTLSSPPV
Sequence of RET tyrosine kinase (P07949 29-1114): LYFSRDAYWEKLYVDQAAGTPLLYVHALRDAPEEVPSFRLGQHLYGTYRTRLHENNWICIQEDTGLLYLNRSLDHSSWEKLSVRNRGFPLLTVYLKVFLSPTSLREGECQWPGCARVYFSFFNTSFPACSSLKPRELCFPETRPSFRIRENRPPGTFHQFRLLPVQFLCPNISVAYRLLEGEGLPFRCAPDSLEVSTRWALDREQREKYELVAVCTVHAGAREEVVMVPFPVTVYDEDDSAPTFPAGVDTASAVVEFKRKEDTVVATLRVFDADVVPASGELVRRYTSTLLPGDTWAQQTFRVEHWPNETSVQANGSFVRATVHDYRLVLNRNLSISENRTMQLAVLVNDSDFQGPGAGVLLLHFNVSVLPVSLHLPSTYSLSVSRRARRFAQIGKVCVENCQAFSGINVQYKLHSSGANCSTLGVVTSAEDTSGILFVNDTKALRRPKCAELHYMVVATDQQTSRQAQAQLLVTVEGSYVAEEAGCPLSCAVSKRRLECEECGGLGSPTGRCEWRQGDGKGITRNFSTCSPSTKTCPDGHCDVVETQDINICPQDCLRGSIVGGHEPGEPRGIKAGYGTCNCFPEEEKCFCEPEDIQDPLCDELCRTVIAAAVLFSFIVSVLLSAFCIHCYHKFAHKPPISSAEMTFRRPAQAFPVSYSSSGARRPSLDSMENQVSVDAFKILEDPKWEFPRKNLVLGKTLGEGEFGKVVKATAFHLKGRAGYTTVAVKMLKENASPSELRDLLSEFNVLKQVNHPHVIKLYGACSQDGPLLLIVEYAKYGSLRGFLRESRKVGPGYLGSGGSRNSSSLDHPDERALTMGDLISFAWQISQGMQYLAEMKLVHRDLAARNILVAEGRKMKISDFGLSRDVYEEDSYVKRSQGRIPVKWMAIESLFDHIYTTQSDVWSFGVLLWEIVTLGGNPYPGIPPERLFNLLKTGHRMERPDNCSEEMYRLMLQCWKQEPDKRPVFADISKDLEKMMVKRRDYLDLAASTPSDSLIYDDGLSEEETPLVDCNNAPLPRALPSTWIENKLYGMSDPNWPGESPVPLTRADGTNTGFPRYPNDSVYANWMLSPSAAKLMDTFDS
Experimental for RET tyrosine kinase: (§1) The assay is based on the LANCE TR-FRET technology of Perkin Elmer Inc., and the assay method is as follows:
(§2) 2.5 μL of the gradient-diluted compounds were taken with a transfer pipette to a 384-well plate.
Addition of enzyme: 5 μL of 2× RET kinase solution (concentration was 0.8 nM) was taken with a transfer pipette to the corresponding reaction well of the 384-well plate, mixed well and pre-reacted at room temperature for 30 minutes.
2.5 μL 4× Ultra ULight™-JAK-1 (Tyr1023) Peptide (concentration was 200 nM)/ATP (concentration was 40 μM) mixture was taken with a transfer pipette to the corresponding reaction well of the 384-well plate.
(§3) The final concentration of DMSO in the reaction system was 4%.
(§4) The mixture was mixed well and then centrifuged and reacted at room temperature in dark for 60 min.
(§5) The 384-well plate was placed into the Envision plate reader and the signal was detected using the appropriate program.
Experimental for VEGFR2 tyrosine kinase: as §1, §2
Addition of enzyme: 5 μL of 2× VEGFR2 kinase solution (concentration was 0.5 nM) was taken with a transfer pipette to the corresponding reaction well of the 384-well plate, mixed well and pre-reacted at room temperature for 30 minutes.
2.5 μL 4× Ultra ULight™-JAK-1 (Tyr1023) Peptide (concentration was 200 nM)/ATP (concentration was 40 μMM) mixture was taken with a transfer pipette to the corresponding reaction well of the 384-well plate.
Negative control: 2.5 μL/well 4× substrate/ATP mixture and 7.5 μL 1× Kinase Assay Buffer were added to the wells of the 384-well plate.
as §3, §4, §5

On to `COCCOc1cc2nccc(Oc3ccc(NC(=O)NC4CC4)c(Cl)c3)c2c2c1OCCO2` [Example 49, 1-(2-chloro-4-((5-(2-methoxyethoxy)-2,3-dihydro-[1,4]dioxino[2,3-f]quinolin-10-yl)oxy)phenyl)-3-cyclopropylurea], for which the IC50 on VEGFR2 tyrosine kinase (read-out: VEGFR-2 IC50) and on RET tyrosine kinase (read-out: RET IC50) was under 50 nM in each case.
For `CC(C)CNC(=O)Nc1ccc(Oc2ccnc3cc(OCCCN4CCOCC4)c4c(c23)OCCO4)cc1Cl` [Example 89, 1-(2-chloro-4-((5-(3-morpholinopropoxy)-2,3-dihydro-[1,4]dioxino[2,3-f]quinolin-10-yl)oxy)phenyl)-3-isobutylurea], the IC50 on VEGFR2 tyrosine kinase (read-out: VEGFR-2 IC50) and on RET tyrosine kinase (read-out: RET IC50) was under 50 nM in each case.
As to `CCNC(=O)Nc1ccc(Oc2ccnc3cc(OC)c4c(c23)OCCO4)cc1Cl` [Example 80, 1-(2-chloro-4-((5-methoxy-2,3-dihydro-[1,4]dioxino[2,3-f]quinolin-10-yl)oxy)phenyl)-3-ethylurea], the IC50 at VEGFR2 tyrosine kinase (read-out: VEGFR-2 IC50) and at RET tyrosine kinase (read-out: RET IC50) was under 50 nM throughout.
`COCCOc1cc2nccc(Oc3ccc(NC(=O)NC4CCC4)c(Cl)c3)c2c2c1OCCO2` [Example 70, 1-(2-chloro-4-((5-(2-methoxyethoxy)-2,3-dihydro-[1,4]dioxino[2,3-f]quinolin-10-yl)oxy)phenyl)-3-cyclobutylurea]: the half-maximal inhibitory concentration (IC50) at VEGFR2 tyrosine kinase (read-out: VEGFR-2 IC50) and at RET tyrosine kinase (read-out: RET IC50) was under 50 nM throughout.
In the case of `COc1cc2nccc(Oc3ccc(NC(=O)Nc4ccc(Cl)c(C(F)(F)F)c4)cc3F)c2c2c1OCCO2` [Example 5, 1-(4-chloro-3-(trifluoromethyl)phenyl)-3-(3-fluoro-4-((5-methoxy-2,3-dihydro-[1,4]dioxino[2,3-f]quinolin-10-yl)oxy)phenyl)urea], the 50% inhibitory concentration (IC50) – broadly, the point on the concentration scale where inhibition reaches its midpoint – is 50 to 500 nM at VEGFR2 tyrosine kinase (read-out: VEGFR-2 IC50) and under 50 nM on RET tyrosine kinase (read-out: RET IC50).
Take `O=C(Nc1ccc(F)cc1)Nc1ccc(Oc2ccnc3cc(OCCCN4CCOCC4)c4c(c23)OCCO4)cc1` [Example 77, 1-(4-fluorophenyl)-3-(4-((5-(3-morpholinopropoxy)-2,3-dihydro-[1,4]dioxino[2,3-f]quinolin-10-yl)oxy)phenyl)urea]: the 50% inhibitory concentration (IC50) at VEGFR2 tyrosine kinase (read-out: VEGFR-2 IC50) and at RET tyrosine kinase (read-out: RET IC50) was under 50 nM throughout.
Turning to `N#CCCCOc1cc2nccc(Oc3ccc(NC(=O)Nc4ccc(Cl)c(C(F)(F)F)c4)cc3)c2c2c1OCCO2` [Example 94, 1-(4-chloro-3-(trifluoromethyl)phenyl)-3-(4-((5-(3-cyanopropoxy)-2,3-dihydro-[1,4]dioxino[2,3-f]quinolin-10-yl)oxy)phenyl)urea], the IC50 at VEGFR2 tyrosine kinase is 50 to 500 nM; on RET tyrosine kinase (read-out: RET IC50) it was under 50 nM.
With `COCCCOc1cc2nccc(Oc3ccc(NC(=O)NC4CCC4)c(Cl)c3)c2c2c1OCCO2` [Example 72, 1-(2-chloro-4-((5-(3-methoxypropoxy)-2,3-dihydro-[1,4]dioxino[2,3-f]quinolin-10-yl)oxy)phenyl)-3-cyclobutylurea], the IC50 at VEGFR2 tyrosine kinase (read-out: VEGFR-2 IC50) and on RET tyrosine kinase (read-out: RET IC50) was under 50 nM each time.
Take `O=C(Nc1ccc(Oc2ccnc3cc(OCCCN4CCOCC4)c4c(c23)OCCO4)cc1)Nc1ccc(F)cc1F` [Example 78, 1-(2,4-difluorophenyl)-3-(4-((5-(3-morpholinopropoxy)-2,3-dihydro-[1,4]dioxino[2,3-f]quinolin-10-yl)oxy)phenyl)urea]: the concentration for half-maximal inhibition (IC50) at VEGFR2 tyrosine kinase (read-out: VEGFR-2 IC50) and on RET tyrosine kinase (read-out: RET IC50) was under 50 nM in each case.
As to `CC1(O)CCN(CCCOc2cc3nccc(Oc4ccc(NC(=O)Nc5ccc(Cl)c(C(F)(F)F)c5)cc4)c3c3c2OCCO3)CC1` [Example 25, 1-(4-chloro-3-(trifluoromethyl)phenyl)-3-(4-((5-(3-(4-hydroxy-4-methylpiperidin-1-yl)propoxy)-2,3-dihydro-[1,4]dioxino[2,3-f]quinolin-10-yl)oxy)phenyl)urea], the half-inhibitory concentration (IC50) at VEGFR2 tyrosine kinase (read-out: VEGFR-2 IC50) and on RET tyrosine kinase (read-out: RET IC50) was under 50 nM throughout.
In the case of `CC1(N)CCN(CCCOc2cc3nccc(Oc4ccc(NC(=O)Nc5ccc(Cl)c(C(F)(F)F)c5)cc4)c3c3c2OCCO3)CC1` [Example 26, 1-(4-((5-(3-(4-amino-4-methylpiperidin-1-yl)propoxy)-2,3-dihydro-[1,4]dioxino[2,3-f]quinolin-10-yl)oxy)phenyl)-3-(4-chloro-3-(trifluoromethyl)phenyl)urea], the 50% inhibitory concentration (IC50) on VEGFR2 tyrosine kinase (read-out: VEGFR-2 IC50) and on RET tyrosine kinase (read-out: RET IC50) was under 50 nM each time.
Take `CC1(N)CCN(CCCOc2cc3nccc(Oc4ccc(NC(=O)NC5CC5)c(Cl)c4)c3c3c2OCCO3)CC1` [Example 61, 1-(4-((5-(3-(4-amino-4-methylpiperidin-1-yl)propoxy)-2,3-dihydro-[1,4]dioxino[2,3-f]quinolin-10-yl)oxy)-2-chlorophenyl)-3-cyclopropylurea]: the IC50 at VEGFR2 tyrosine kinase (read-out: VEGFR-2 IC50) and on RET tyrosine kinase (read-out: RET IC50) was under 50 nM throughout.
On to `COc1cc2nccc(Oc3ccc(NC(=O)NC4CC4)c(Cl)c3)c2c2c1OCCO2` [Example 7, 1-(2-chloro-4-((5-methoxy-2,3-dihydro-[1,4]dioxino[2,3-f]quinolin-10-yl)oxy)phenyl)-3-cyclopropylurea], for which the half-maximal inhibitory concentration (IC50) on VEGFR2 tyrosine kinase and at RET tyrosine kinase was under 50 nM in each case.
Turning to `CCCNC(=O)Nc1ccc(Oc2ccnc3cc(OC)c4c(c23)OCCO4)cc1Cl` [Example 81, 1-(2-chloro-4-((5-methoxy-2,3-dihydro-[1,4]dioxino[2,3-f]quinolin-10-yl)oxy)phenyl)-3-propylurea], the half-inhibitory concentration (IC50) at VEGFR2 tyrosine kinase (read-out: VEGFR-2 IC50) and at RET tyrosine kinase (read-out: RET IC50) was under 50 nM each time.
With `O=C(Nc1ccc(Oc2ccnc3cc(OCCO)c4c(c23)OCCO4)cc1Cl)NC1CC1` [Example 48, 1-(2-chloro-4-((5-(2-hydroxyethoxy)-2,3-dihydro-[1,4]dioxino[2,3-f]quinolin-10-yl)oxy)phenyl)-3-cyclopropylurea], the IC50 at VEGFR2 tyrosine kinase (read-out: VEGFR-2 IC50) and at RET tyrosine kinase (read-out: RET IC50) was under 50 nM each time.
On to `CN(C)CCCOc1cc2nccc(Oc3ccc(NC(=O)NC4CC4)c(Cl)c3)c2c2c1OCCO2` [Example 52, 1-(2-chloro-4-((5-(3-(dimethylamino)propoxy)-2,3-dihydro-[1,4]dioxino[2,3-f]quinolin-10-yl)oxy)phenyl)-3-cyclopropylurea], for which the IC50 on VEGFR2 tyrosine kinase (read-out: VEGFR-2 IC50) and at RET tyrosine kinase (read-out: RET IC50) was under 50 nM each time.
As to `N#CCOc1cc2nccc(Oc3ccc(NC(=O)NC4CC4)c(Cl)c3)c2c2c1OCCO2` [Example 47, 1-(2-chloro-4-((5-(cyanomethoxy)-2,3-dihydro-[1,4]dioxino[2,3-f]quinolin-10-yl)oxy)phenyl)-3-cyclopropylurea], the IC50 at VEGFR2 tyrosine kinase (read-out: VEGFR-2 IC50) and at RET tyrosine kinase (read-out: RET IC50) was under 50 nM throughout.
Regarding `O=C(Nc1ccc(Oc2ccnc3cc(OCCCN4CCCC4)c4c(c23)OCCO4)cc1)Nc1ccc(Cl)c(C(F)(F)F)c1` [Example 18, 1-(4-chloro-3-(trifluoromethyl)phenyl)-3-(4-((5-(3-(pyrrolidin-1-yl)propoxy)-2,3-dihydro-[1,4]dioxino[2,3-f]quinolin-10-yl)oxy)phenyl)urea], the IC50 on VEGFR2 tyrosine kinase (read-out: VEGFR-2 IC50) and at RET tyrosine kinase (read-out: RET IC50) was under 50 nM in each case.
On to `CCOc1cc2nccc(Oc3ccc(NC(=O)NC4CC4)c(F)c3)c2c2c1OCCO2` [Example 90, 1-cyclopropyl-3-(4-((5-ethoxy-2,3-dihydro-[1,4]dioxino[2,3-f]quinolin-10-yl)oxy)-2-fluorophenyl)urea], for which the IC50 on VEGFR2 tyrosine kinase (read-out: VEGFR-2 IC50) and on RET tyrosine kinase (read-out: RET IC50) was under 50 nM each time.
As to `CC(C)NC(=O)Nc1ccc(Oc2ccnc3cc(OCCCN4CCOCC4)c4c(c23)OCCO4)cc1Cl` [Example 88, 1-(2-chloro-4-((5-(3-morpholinopropoxy)-2,3-dihydro-[1,4]dioxino[2,3-f]quinolin-10-yl)oxy)phenyl)-3-isopropylurea], the concentration for half-maximal inhibition (IC50) at VEGFR2 tyrosine kinase (read-out: VEGFR-2 IC50) and on RET tyrosine kinase (read-out: RET IC50) was under 50 nM in each case.

(Values after patent US11479559B2, “Urea-substituted aromatic ring-linked dioxinoquinoline compounds, preparation method and uses thereof” (BEIJING SCITECH-MQ PHARMACEUTICALS LIMITED, priority 2018, dated 2022).)
